Measurements taken from patent US6403794B2, “Substituted 2-amino-4-alkylamino-1,3,5-triazines as herbicides” (Bayer Aktiengesellschaft, priority 1996, dated 2002).

How the values were obtained:
Assay type in all cases: in vivo
Wheat [1] = assay: Post-emergence test; settings: greenhouse, 250 g of ai./ha, after three weeks
Experimental: (§1) Solvent: 5 parts by weight of acetone
(§2) Emulsifier: 1 part by weight of alkylaryl polyglycol ether
(§3) To produce a suitable preparation of active compound, 1 part by weight of active compound is mixed with the stated amount of solvent, the stated amount of emulsifier is added and the concentrate is diluted with water to the desired concentration.
(§4) Test plants which have a height of 5-15 cm are sprayed with the preparation of active compound such that the particular amounts of active compounds desired are applied per unit area. The concentration of the spray liquor is chosen so that the particular amounts of active compound desired are applied in 1000 l of water/ha.
(§5) After three weeks, the degree of damage to the plants is scored visually in % damage, in comparison to the untreated control.
(§6) 0%=no effect (like untreated control)

Datura = assay: Post-emergence test; settings: greenhouse, 250 g of ai./ha, after three weeks
Experimental: as §1, §2, §3, §4, §5, §6

Abutilon [2] = assay: Post-emergence test; settings: greenhouse, after three weeks
Experimental: as §1, §2, §3, §4, §5, §6

weeds [3] = assay: Post-emergence test
Experimental: as §1, §2, §3, §4, §5, §6

Echinochloa = assay: Post-emergence test; settings: greenhouse, 250 g of ai./ha, after three weeks
Experimental: as §1, §2, §3, §4, §5, §6

Veronica [4] = assay: Post-emergence test; settings: greenhouse, 250 g of ai./ha, after three weeks
Experimental: as §1, §2, §3, §4, §5, §6

Ipomoea = assay: Post-emergence test; settings: greenhouse, 250 g of ai./ha, after three weeks
Experimental: as §1, §2, §3, §4, §5, §6

Digitaria = assay: Pre-emergence test; settings: greenhouse, 500 g of ai./ha, after three weeks
Experimental: as §1, §2, §3
(§7) Seeds of the test plants are sown in normal soil. After about 24 hours, the soil is watered with the preparation of active compound. The amount of water per unit area is advantageously kept constant. The concentration of active compound in the preparation is immaterial, only the application rate of active compound per unit area matters.
(§8) After three weeks, the degree of damage to the plants is scored visually in % damage in comparison to the development of the untreated control.
as §6

Abutilon [5] = assay: Pre-emergence test; settings: Abutilon, 504 h, greenhouse, after three weeks, read-out: degree of damage to the plants (% damage), Abutilon; for pest or weed control at 1000 g/ha: 1000 g of ai./ha
Experimental: as §1, §2, §3, §7, §8, §6

weeds [6] = assay: Pre-emergence test
Experimental: as §1, §2, §3, §7, §8, §6

Cotton = assay: Pre-emergence test; settings: greenhouse, 500 g of ai./ha, after three weeks
Experimental: as §1, §2, §3, §7, §8, §6

Maize = assay: Pre-emergence test; settings: greenhouse, 500 g of ai./ha, after three weeks
Experimental: as §1, §2, §3, §7, §8, §6

Galium [7] = assay: Pre-emergence test; settings: greenhouse, after three weeks
Experimental: as §1, §2, §3, §7, §8, §6

Alopecurus [8] = assay: Pre-emergence test; settings: greenhouse, after three weeks
Experimental: as §1, §2, §3, §7, §8, §6

Matricaria = assay: Pre-emergence test; settings: greenhouse, 500 g of ai./ha, after three weeks
Experimental: as §1, §2, §3, §7, §8, §6

Amaranthus [9] = assay: Post-emergence test; settings: Amaranthus, 504 h, greenhouse, 1000 g of ai./ha, after three weeks, read-out: degree of damage to the plants (% damage), Amaranthus
Experimental: as §1, §2, §3, §4, §5, §6

Galium [10] = assay: Post-emergence test; settings: greenhouse, 1000 g of ai./ha, after three weeks
Experimental: as §1, §2, §3, §4, §5, §6

Xanthium [11] = assay: Post-emergence test; settings: greenhouse, 1000 g of ai./ha, after three weeks
Experimental: as §1, §2, §3, §4, §5, §6

Setaria [12] = assay: Post-emergence test; settings: Setaria, 504 h, greenhouse, 1000 g of ai./ha, after three weeks, read-out: degree of damage to the plants (% damage), Setaria
Experimental: as §1, §2, §3, §4, §5, §6

Wheat [13] = assay: Pre-emergence test; settings: greenhouse, 500 g of ai./ha, after three weeks
Experimental: as §1, §2, §3, §7, §8, §6

Amaranthus [14] = assay: Pre-emergence test; settings: Amaranthus, 504 h, greenhouse, 1000 g of ai./ha, after three weeks, read-out: degree of damage to the plants (% damage), Amaranthus
Experimental: as §1, §2, §3, §7, §8, §6

Viola = assay: Pre-emergence test; settings: greenhouse, 500 g of ai./ha, after three weeks
Experimental: as §1, §2, §3, §7, §8, §6

Solanum = assay: Pre-emergence test; settings: greenhouse, 500 g of ai./ha, after three weeks
Experimental: as §1, §2, §3, §7, §8, §6

Chenopodium = assay: Pre-emergence test; settings: greenhouse, 500 g of ai./ha, after three weeks
Experimental: as §1, §2, §3, §7, §8, §6

Veronica [15] = assay: Pre-emergence test; settings: greenhouse, 500 g of ai./ha, after three weeks
Experimental: as §1, §2, §3, §7, §8, §6

Setaria [16] = assay: Pre-emergence test; settings: greenhouse, 1000 g of ai./ha, after three weeks
Experimental: as §1, §2, §3, §7, §8, §6

Avena fatua = assay: Post-emergence test; settings: greenhouse, 1000 g of ai./ha, after three weeks
Experimental: as §1, §2, §3, §4, §5, §6

Cyperus = assay: Post-emergence test; settings: greenhouse, 1000 g of ai./ha, after three weeks
Experimental: as §1, §2, §3, §4, §5, §6

Sinapis [17] = assay: Post-emergence test; settings: greenhouse, 1000 g of ai./ha, after three weeks
Experimental: as §1, §2, §3, §4, §5, §6

Alopecurus [18] = assay: Post-emergence test; settings: greenhouse, 1000 g of ai./ha, after three weeks
Experimental: as §1, §2, §3, §4, §5, §6

Sinapis [19] = assay: Pre-emergence test; settings: greenhouse, 1000 g of ai./ha, after three weeks
Experimental: as §1, §2, §3, §7, §8, §6

Xanthium [20] = assay: Pre-emergence test; settings: greenhouse, 1000 g of ai./ha, after three weeks
Experimental: as §1, §2, §3, §7, §8, §6

How did the “degree of damage to the plants (% damage), Wheat” value (Wheat [1]) turn out when `CCC(CCc1ccccc1)Nc1nc(N)nc(C(C)(C)F)n1` (racemic) [Example 1, (R/S)-2-amino-4-(1-fluoro-1-methyl-ethyl)-6-(1-ethyl-3-phenyl-propylamino)-1,3,5-triazine] was run?
Its value is 0%.

And the “degree of damage to the plants (% damage), Datura” value (Datura)?
The value was 100%.

And the “degree of damage to the plants (% damage), Abutilon” value (from here on “degree … (% damage), Abutilon”) (Abutilon [2]; 250 g of ai./ha)?
The value was 100%.

What about the activity against weeds (weeds [3]) of the same molecule?
The activity against weeds was “strong activity”.

What about the “degree of damage to the plants (% damage), Echinochloa” value (Echinochloa) of the same molecule?
The value was 80%.

And the “degree of damage to the plants (% damage), Veronica” value (Veronica [4])?
Its value is 100%.

What about the “degree of damage to the plants (% damage), Ipomoea” value (Ipomoea) of the same molecule?
The value was 100%.

What about the “degree of damage to the plants (% damage), Digitaria” value (Digitaria) of the same molecule?
The value was 100%.

What about the pest or weed control at 500 g/ha (Abutilon [5]; 500 g of ai./ha) of the same molecule?
Its pest or weed control at 500 g/ha is 100%.

What about the activity against weeds (weeds [6]) of the same molecule?
Its activity against weeds is “strong activity”.

And the “degree of damage to the plants (% damage), Cotton” value (Cotton)?
Its value is 0%.

And the “degree of damage to the plants (% damage), Maize” value (Maize)?
Its value is 0%.

And the “degree of damage to the plants (% damage), Galium” value (from here on “degree … (% damage), Galium”) (Galium [7]; 500 g of ai./ha)?
Its value is 100%.

What about the “degree of damage to the plants (% damage), Alopecurus” value (“degree … (% damage), Alopecurus” below) (Alopecurus [8]; 500 g of ai./ha) of the same molecule?
The value was 100%.

What about the “degree of damage to the plants (% damage), Matricaria” value (Matricaria) of the same molecule?
Its value is 100%.

Which pest or weed control at 1000 g/ha (Amaranthus [9]) does the source give for `CCC(CCc1ccccn1)Nc1nc(N)nc(C(C)(C)F)n1` (stereo not drawn) [Example 22] here?
Its pest or weed control at 1000 g/ha is 95%.

And the “degree … (% damage), Abutilon” value (Abutilon [2]; 1000 g of ai./ha)?
Its value is 70%.

What about the activity against weeds (weeds [3]) of the same molecule?
Its activity against weeds is “strong activity”.

What about the “degree … (% damage), Galium” value (Galium [10]) of the same molecule?
Its value is 80%.

What about the “degree of damage to the plants (% damage), Xanthium” value (Xanthium [11]) of the same molecule?
Its value is 70%.

And the pest or weed control at 1000 g/ha (Setaria [12])?
Its pest or weed control at 1000 g/ha is 80%.

And the “degree of damage to the plants (% damage), Wheat” value (Wheat [13])?
The value was 0%.

And the pest or weed control at 1000 g/ha (Amaranthus [14])?
Its pest or weed control at 1000 g/ha is 95%.

And the “degree of damage to the plants (% damage), Viola” value (Viola)?
Its value is 100%.

What about the “degree of damage to the plants (% damage), Solanum” value (Solanum) of the same molecule?
The value was 100%.

What about the pest or weed control at 1000 g/ha (Abutilon [5]) of the same molecule?
The pest or weed control at 1000 g/ha was 100%.

And the activity against weeds (weeds [6])?
Its activity against weeds is “strong activity”.

What about the “degree of damage to the plants (% damage), Cotton” value (Cotton) of the same molecule?
Its value is 0%.

And the “degree … (% damage), Galium” value (Galium [7]; 1000 g of ai./ha)?
The value was 100%.

What about the “degree of damage to the plants (% damage), Chenopodium” value (Chenopodium) of the same molecule?
The value was 100%.

And the “degree … (% damage), Alopecurus” value (Alopecurus [8]; 1000 g of ai./ha)?
The value was 90%.

And the “degree of damage to the plants (% damage), Veronica” value (Veronica [15])?
Its value is 100%.

And the “degree of damage to the plants (% damage), Setaria” value (Setaria [16])?
The value was 70%.

With `CCC(CCc1ccsc1)Nc1nc(N)nc(C(C)(C)F)n1` (stereo not drawn) [Example 33] as the molecule, how does the pest or weed control at 1000 g/ha (Amaranthus [9]) read?
Its pest or weed control at 1000 g/ha is 100%.

And the “degree of damage to the plants (% damage), Avena fatua” value (Avena fatua)?
The value was 100%.

And the “degree of damage to the plants (% damage), Cyperus” value (Cyperus)?
The value was 90%.

What about the “degree … (% damage), Abutilon” value (Abutilon [2]; 1000 g of ai./ha) of the same molecule?
The value was 100%.

What about the activity against weeds (weeds [3]) of the same molecule?
Its activity against weeds is “strong activity”.

What about the “degree of damage to the plants (% damage), Sinapis” value (Sinapis [17]) of the same molecule?
Its value is 100%.

What about the “degree … (% damage), Alopecurus” value (Alopecurus [18]) of the same molecule?
Its value is 80%.

And the pest or weed control at 1000 g/ha (Setaria [12])?
Its pest or weed control at 1000 g/ha is 100%.

And the pest or weed control at 1000 g/ha (Amaranthus [14])?
Its pest or weed control at 1000 g/ha is 100%.

And the pest or weed control at 1000 g/ha (Abutilon [5])?
Its pest or weed control at 1000 g/ha is 90%.

What about the activity against weeds (weeds [6]) of the same molecule?
The activity against weeds was “strong activity”.

What about the “degree of damage to the plants (% damage), Sinapis” value (Sinapis [19]) of the same molecule?
The value was 100%.

And the “degree … (% damage), Alopecurus” value (Alopecurus [8]; 1000 g of ai./ha)?
The value was 100%.

What about the “degree of damage to the plants (% damage), Xanthium” value (Xanthium [20]) of the same molecule?
Its value is 90%.

And the “degree of damage to the plants (% damage), Setaria” value (Setaria [16])?
Its value is 100%.
